Laboratory results from the NIST ThermoML archive (doi:10.1016/j.jct.2007.11.002).
Numbers after ± are expanded uncertainties.

Assay: xn = mol fraction of the nth substance listed
Details: 101 kPa, Liquid; for viscosity: Capillary tube (Ostwald / Ubbelohde) method

## CN1CCOCC1 [N-methylmorpholine] + C1CCCCC1
298.15 K, x2 = 0.0453
  viscosity: 0.868 ± 0.012 mPa·s
  mass density: 907.59 ± 1 kg/m3
298.15 K, x2 = 0.1276
  viscosity: 0.85 ± 0.011 mPa·s
  mass density: 895.48 ± 1 kg/m3
298.15 K, x2 = 0.1689
  viscosity: 0.84 ± 0.011 mPa·s
  mass density: 889.43 ± 0.98 kg/m3
298.15 K, x2 = 0.2217
  viscosity: 0.83 ± 0.011 mPa·s
  mass density: 881.74 ± 0.96 kg/m3
298.15 K, x2 = 0.2763
  viscosity: 0.824 ± 0.01 mPa·s
  mass density: 873.94 ± 0.94 kg/m3
298.15 K, x2 = 0.3217
  viscosity: 0.821 ± 0.01 mPa·s
  mass density: 867.42 ± 0.92 kg/m3
298.15 K, x2 = 0.3873
  viscosity: 0.819 ± 0.01 mPa·s
  mass density: 857.99 ± 0.9 kg/m3
298.15 K, x2 = 0.4326
  viscosity: 0.819 ± 0.01 mPa·s
  mass density: 851.46 ± 0.89 kg/m3
298.15 K, x2 = 0.4833
  viscosity: 0.821 ± 0.01 mPa·s
  mass density: 844.29 ± 0.88 kg/m3
298.15 K, x2 = 0.5218
  viscosity: 0.824 ± 0.01 mPa·s
  mass density: 838.78 ± 0.87 kg/m3
298.15 K, x2 = 0.5943
  viscosity: 0.829 ± 0.01 mPa·s
298.15 K, x2 = 0.6341
  viscosity: 0.835 ± 0.01 mPa·s
298.15 K, x2 = 0.6877
  viscosity: 0.842 ± 0.01 mPa·s
298.15 K, x2 = 0.7129
  viscosity: 0.847 ± 0.009 mPa·s
298.15 K, x2 = 0.7648
  viscosity: 0.855 ± 0.009 mPa·s
298.15 K, x2 = 0.7895
  viscosity: 0.861 ± 0.009 mPa·s
298.15 K, x2 = 0.8444
  viscosity: 0.868 ± 0.009 mPa·s
298.15 K, x2 = 0.8873
  viscosity: 0.875 ± 0.009 mPa·s
298.15 K, x2 = 0.9348
  viscosity: 0.889 ± 0.009 mPa·s
298.15 K, x2 = 0.9741
  viscosity: 0.898 ± 0.009 mPa·s
298.15 K, x2 = 0.5844
  mass density: 829.95 ± 0.86 kg/m3
298.15 K, x2 = 0.6328
  mass density: 823.16 ± 0.85 kg/m3
298.15 K, x2 = 0.6911
  mass density: 815.03 ± 0.85 kg/m3
298.15 K, x2 = 0.7428
  mass density: 807.87 ± 0.84 kg/m3
298.15 K, x2 = 0.7944
  mass density: 800.77 ± 0.84 kg/m3
298.15 K, x2 = 0.8392
  mass density: 794.64 ± 0.84 kg/m3
298.15 K, x2 = 0.8643
  mass density: 791.35 ± 0.84 kg/m3
298.15 K, x2 = 0.9033
  mass density: 786.15 ± 0.84 kg/m3
298.15 K, x2 = 0.9532
  mass density: 779.63 ± 0.84 kg/m3
298.15 K, x2 = 0.9823
  mass density: 775.75 ± 0.84 kg/m3
303.15 K, x2 = 0.0453
  viscosity: 0.854 ± 0.011 mPa·s
  mass density: 902.83 ± 1 kg/m3
303.15 K, x2 = 0.1276
  viscosity: 0.838 ± 0.011 mPa·s
  mass density: 890.66 ± 1 kg/m3
303.15 K, x2 = 0.1689
  viscosity: 0.828 ± 0.011 mPa·s
  mass density: 884.59 ± 0.98 kg/m3
303.15 K, x2 = 0.2217
  viscosity: 0.814 ± 0.011 mPa·s
  mass density: 876.96 ± 0.96 kg/m3
303.15 K, x2 = 0.2763
  viscosity: 0.804 ± 0.01 mPa·s
  mass density: 869.13 ± 0.94 kg/m3
303.15 K, x2 = 0.3217
  viscosity: 0.797 ± 0.01 mPa·s
  mass density: 862.66 ± 0.93 kg/m3
303.15 K, x2 = 0.3873
  viscosity: 0.791 ± 0.01 mPa·s
  mass density: 853.23 ± 0.91 kg/m3
303.15 K, x2 = 0.4326
  viscosity: 0.786 ± 0.01 mPa·s
  mass density: 846.82 ± 0.9 kg/m3
303.15 K, x2 = 0.4833
  viscosity: 0.784 ± 0.01 mPa·s
  mass density: 839.67 ± 0.89 kg/m3
303.15 K, x2 = 0.5218
  viscosity: 0.784 ± 0.01 mPa·s
  mass density: 834.2 ± 0.88 kg/m3
303.15 K, x2 = 0.5844
  viscosity: 0.785 ± 0.009 mPa·s
  mass density: 825.42 ± 0.87 kg/m3
303.15 K, x2 = 0.6328
  viscosity: 0.786 ± 0.009 mPa·s
  mass density: 818.66 ± 0.86 kg/m3
303.15 K, x2 = 0.6911
  viscosity: 0.789 ± 0.009 mPa·s
  mass density: 810.51 ± 0.86 kg/m3
303.15 K, x2 = 0.7428
  viscosity: 0.79 ± 0.009 mPa·s
  mass density: 803.38 ± 0.85 kg/m3
303.15 K, x2 = 0.7944
  viscosity: 0.794 ± 0.009 mPa·s
  mass density: 796.31 ± 0.85 kg/m3
303.15 K, x2 = 0.8392
  viscosity: 0.797 ± 0.009 mPa·s
  mass density: 790.27 ± 0.85 kg/m3
303.15 K, x2 = 0.8643
  viscosity: 0.797 ± 0.009 mPa·s
  mass density: 786.94 ± 0.84 kg/m3
303.15 K, x2 = 0.9033
  viscosity: 0.801 ± 0.009 mPa·s
  mass density: 781.75 ± 0.84 kg/m3
303.15 K, x2 = 0.9532
  viscosity: 0.805 ± 0.009 mPa·s
  mass density: 775.19 ± 0.84 kg/m3
303.15 K, x2 = 0.9823
  viscosity: 0.805 ± 0.009 mPa·s
  mass density: 771.51 ± 0.84 kg/m3
313.15 K, x2 = 0.0453
  viscosity: 0.824 ± 0.011 mPa·s
  mass density: 893.49 ± 1.1 kg/m3
313.15 K, x2 = 0.1276
  viscosity: 0.803 ± 0.011 mPa·s
  mass density: 882.09 ± 1 kg/m3
313.15 K, x2 = 0.1689
  viscosity: 0.792 ± 0.01 mPa·s
  mass density: 876.36 ± 0.99 kg/m3
313.15 K, x2 = 0.2217
  viscosity: 0.779 ± 0.01 mPa·s
  mass density: 869.02 ± 0.97 kg/m3
313.15 K, x2 = 0.2763
  viscosity: 0.765 ± 0.01 mPa·s
  mass density: 861.42 ± 0.95 kg/m3
313.15 K, x2 = 0.3217
  viscosity: 0.755 ± 0.01 mPa·s
  mass density: 855.1 ± 0.94 kg/m3
313.15 K, x2 = 0.3873
  viscosity: 0.742 ± 0.01 mPa·s
  mass density: 845.94 ± 0.92 kg/m3
313.15 K, x2 = 0.4326
  viscosity: 0.736 ± 0.009 mPa·s
  mass density: 839.61 ± 0.91 kg/m3
313.15 K, x2 = 0.4833
  viscosity: 0.729 ± 0.009 mPa·s
  mass density: 832.51 ± 0.9 kg/m3
313.15 K, x2 = 0.5218
  viscosity: 0.726 ± 0.009 mPa·s
  mass density: 827.11 ± 0.89 kg/m3
313.15 K, x2 = 0.5844
  viscosity: 0.721 ± 0.009 mPa·s
  mass density: 818.32 ± 0.88 kg/m3
313.15 K, x2 = 0.6328
  viscosity: 0.719 ± 0.009 mPa·s
  mass density: 811.52 ± 0.87 kg/m3
313.15 K, x2 = 0.6911
  viscosity: 0.717 ± 0.009 mPa·s
  mass density: 803.31 ± 0.87 kg/m3
313.15 K, x2 = 0.7428
  viscosity: 0.714 ± 0.009 mPa·s
  mass density: 796.01 ± 0.86 kg/m3
313.15 K, x2 = 0.7944
  viscosity: 0.71 ± 0.009 mPa·s
  mass density: 788.72 ± 0.86 kg/m3
313.15 K, x2 = 0.8392
  viscosity: 0.708 ± 0.008 mPa·s
  mass density: 782.38 ± 0.86 kg/m3
313.15 K, x2 = 0.8643
  viscosity: 0.706 ± 0.008 mPa·s
  mass density: 778.83 ± 0.86 kg/m3
313.15 K, x2 = 0.9033
  viscosity: 0.704 ± 0.008 mPa·s
  mass density: 773.3 ± 0.86 kg/m3
313.15 K, x2 = 0.9532
  viscosity: 0.7 ± 0.008 mPa·s
  mass density: 766.22 ± 0.86 kg/m3
313.15 K, x2 = 0.9823
  viscosity: 0.698 ± 0.008 mPa·s
  mass density: 762.08 ± 0.86 kg/m3
323.15 K, x2 = 0.0453
  viscosity: 0.802 ± 0.011 mPa·s
  mass density: 874.42 ± 1.1 kg/m3
323.15 K, x2 = 0.1276
  viscosity: 0.778 ± 0.01 mPa·s
  mass density: 863.12 ± 1 kg/m3
323.15 K, x2 = 0.1689
  viscosity: 0.764 ± 0.01 mPa·s
  mass density: 857.48 ± 1 kg/m3
323.15 K, x2 = 0.2217
  viscosity: 0.75 ± 0.01 mPa·s
  mass density: 850.4 ± 1 kg/m3
323.15 K, x2 = 0.2763
  viscosity: 0.732 ± 0.01 mPa·s
  mass density: 843.13 ± 0.98 kg/m3
323.15 K, x2 = 0.3217
  viscosity: 0.718 ± 0.01 mPa·s
  mass density: 837.1 ± 0.96 kg/m3
323.15 K, x2 = 0.3873
  viscosity: 0.701 ± 0.009 mPa·s
  mass density: 828.33 ± 0.95 kg/m3
323.15 K, x2 = 0.4326
  viscosity: 0.691 ± 0.009 mPa·s
  mass density: 822.36 ± 0.94 kg/m3
323.15 K, x2 = 0.4833
  viscosity: 0.681 ± 0.009 mPa·s
  mass density: 815.69 ± 0.93 kg/m3
323.15 K, x2 = 0.5218
  viscosity: 0.673 ± 0.009 mPa·s
  mass density: 810.59 ± 0.92 kg/m3
323.15 K, x2 = 0.5844
  viscosity: 0.665 ± 0.009 mPa·s
  mass density: 802.4 ± 0.91 kg/m3
323.15 K, x2 = 0.6328
  viscosity: 0.659 ± 0.009 mPa·s
  mass density: 796.08 ± 0.9 kg/m3
323.15 K, x2 = 0.6911
  viscosity: 0.653 ± 0.008 mPa·s
  mass density: 788.47 ± 0.9 kg/m3
323.15 K, x2 = 0.7428
  viscosity: 0.646 ± 0.008 mPa·s
  mass density: 781.8 ± 0.89 kg/m3
323.15 K, x2 = 0.7944
  viscosity: 0.638 ± 0.008 mPa·s
  mass density: 775.2 ± 0.89 kg/m3
323.15 K, x2 = 0.8392
  viscosity: 0.631 ± 0.008 mPa·s
  mass density: 769.54 ± 0.89 kg/m3
323.15 K, x2 = 0.8643
  viscosity: 0.626 ± 0.008 mPa·s
  mass density: 766.42 ± 0.89 kg/m3
323.15 K, x2 = 0.9033
  viscosity: 0.619 ± 0.008 mPa·s
  mass density: 761.57 ± 0.88 kg/m3
323.15 K, x2 = 0.9532
  viscosity: 0.611 ± 0.008 mPa·s
  mass density: 755.42 ± 0.88 kg/m3
323.15 K, x2 = 0.9823
  viscosity: 0.607 ± 0.008 mPa·s
  mass density: 751.98 ± 0.88 kg/m3
